Data as given in patent US20250388602A1 (Genase Therapeutics B.V., priority 2022, published 2025).
Where two headings read alike, the source gives them in different places.

Columns and labels:
in vitro [1] = settings: for HLM % remaining: % remaining at 60 min, 1 μM; for half-life at 1 μM: both, human
Method: Human Liver Microsomal metabolic stability: The microsomal metabolic stability assay utilized pooled human liver microsomes (mixed gender, BD Gentest), with supplemented cofactors NADPH and UDPGA (Solarbio S&T Co., LTD). Two separate experiments were performed as follows: • a) With cofactors (NADPH & UDPGA): 25 μL of 10 mM NADPH and 25 μL of 20 mM UDPGA were added to 197.5 μL of reaction solution (phosphate buffer (final concentration in assay 100 mM), MgCl2 (final concentration in assay (5 mM)), alamethacin (final concentration in assay 0.025 mg/mL) and microsomes (final concentration in assay 0.5 mg/mL). • b) Without cofactors (NADPH & UDPGA): 50 μL of H2O was added to 197.5 μL of reaction solution.
The mixture was pre-warmed at 37° C. for 10 minutes. The reaction was started with the addition of 2.5 μL of 100 μM control compound or test compound solutions. Diclofenac was used as positive control in this study. The final concentration of control compound and test compounds was 1 μM. Aliquots of 25 μL were taken from the reaction solution at 0.5, 5, 15, 30 and 60 minutes. The reaction was stopped by the addition of 5 volumes of cold acetonitrile containing internal standards. Samples were centrifuged at 3,220 g for 40 minutes. An aliquot of 100 μL of the supernatant was mixed with 100 μL of ultra-pure H2O and then used for LC-MS/MS analysis. Peak areas were determined from extracted ion chromatograms. Percent parent remaining was calculated from the area ratio of test compound. The slope value was determined by linear regression of the natural logarithm of percent parent remaining versus incubation time curve.
(§1) Peak areas were determined from extracted ion chromatograms to determine the in vitro half-life (t½) of parent compound by regression analysis of the percent parent disappearance vs. time curve. The in vitro half-life (in vitro t½) was determined from the slope value (in vitro t½=−0.693/k). All calculations were carried out using Microsoft Excel.

in vitro [2] = settings: for hHEPs % remaining: % remaining at 120 min, 1 μM; for half-life at 1 μM: human, hepatocytes
Method: Human Hepatocyte metabolic stability: Human hepatocytes (X008000, BioIVT) were freshly thawed prior to the incubations with test compound. Hepatocytes were transferred to 50 mL conical tubes and centrifuged 10 min at 100 g. Thawing medium was removed and replaced by preheated (37° C.) incubation medium (William's E Medium supplemented with GlutaMAX), to yield a hepatocyte density ˜1.5×10^6 cells/mL. Cell viability was determined using AO/PI staining and hepatocytes were diluted using incubation medium to a working density of 0.5×10^6 viable cells/mL. 198 μL of hepatocytes were added into each well of a 96-well plate and placed in the incubator to allow the hepatocytes to warm for 10 minutes. 2 μL test compound or positive control was placed into respective wells of the 96-well plate (final concentration test compound 1 μM) to start the reaction. The plate was returned to the incubator and 25 μL aliquots of the well contents were removed at time points of 0, 15, 30, 60, 90 and 120 minutes. The aliquots were mixed with 6 volumes (150 μL) of acetonitrile containing internal standards (100 nM alprazolam, 200 nM caffeine, and 100 nM tolbutamide) to terminate the reaction. The plate was centrifuged for 20 minutes at 3,200 g. Aliquots of 150 μL of the supernatants were used for LC/MS/MS analysis. All incubations were performed in duplicate.
as §1

CYP1A2 = CYP1A2 (Homo sapiens (Human), UniProt P05177); test: CYP inhibition in pooled human liver microsomes; format: in vitro ADME
Sequence of CYP1A2 (P05177 whole entry): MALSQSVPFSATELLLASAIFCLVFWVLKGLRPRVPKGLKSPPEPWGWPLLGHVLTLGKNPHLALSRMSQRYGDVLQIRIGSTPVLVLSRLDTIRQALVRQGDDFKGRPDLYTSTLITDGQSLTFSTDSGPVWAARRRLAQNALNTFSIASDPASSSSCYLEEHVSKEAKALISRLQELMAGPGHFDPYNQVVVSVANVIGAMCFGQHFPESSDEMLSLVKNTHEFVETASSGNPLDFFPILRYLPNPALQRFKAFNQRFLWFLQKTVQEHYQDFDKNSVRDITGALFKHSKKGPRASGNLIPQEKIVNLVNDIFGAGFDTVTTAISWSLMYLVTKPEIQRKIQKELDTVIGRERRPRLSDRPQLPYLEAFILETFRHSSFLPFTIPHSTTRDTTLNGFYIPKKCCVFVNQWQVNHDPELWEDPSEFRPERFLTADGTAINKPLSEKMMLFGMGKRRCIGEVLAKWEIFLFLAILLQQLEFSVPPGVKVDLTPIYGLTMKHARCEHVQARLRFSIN
Method: (§2) CYP inhibition: Co-incubation of compounds with P450 enzyme-selective substrates was performed using pooled human liver microsomes (Cat. No. H0610, Xenotech), to determine their potential to cause drug-drug interactions. The assay was performed in duplicate. The formation of acetaminophen, 7′-hydoxycoumarin, hydrobupropion, N-desethylamodiaquine, 4′-hydroxydiclofenac, 4′-hydroxymephenytoin, 1′-hydroxybufuralol, 6″-hydroxychlorzoxazone were quantified as markers for CYP1A2, CYP2A6, […], CYP2C8, CYP2C9, CYP2C19, […], CYP2E1, respectively. CYP3A4 inhibition was measured using 2 substrates, measuring the formation of […] (3A4-T), and 1′-hydroxymidazolam (3A4-M). The incubation was carried out in 96 deep well plates each well containing: 179 μL of the master solution (0.2 mg/mL microsomes plus CYP substrate (see below for final substrate concentration and incubation time for the different CYP assays)) in 100 mM phosphate buffer and 1 μL of the compound working solution or vehicle. The final concentrations of the compounds in the assay was 30 μM when using a single dose or 0.1, 0.3, 1, 3, 10 and 30 μM for a dose response.
The incubation plate was placed into a water bath and pre-warmed at 37° C. for 5 minutes before the reactions were started by the addition of 20 μL of 10 mM NADPH solution and incubated at 37° C. for the time listed above. […]

CYP2A6 = CYP2A6 (Homo sapiens (Human), UniProt P11509); test: biochemical; format: in vitro ADME
Sequence of CYP2A6 (P11509 whole entry): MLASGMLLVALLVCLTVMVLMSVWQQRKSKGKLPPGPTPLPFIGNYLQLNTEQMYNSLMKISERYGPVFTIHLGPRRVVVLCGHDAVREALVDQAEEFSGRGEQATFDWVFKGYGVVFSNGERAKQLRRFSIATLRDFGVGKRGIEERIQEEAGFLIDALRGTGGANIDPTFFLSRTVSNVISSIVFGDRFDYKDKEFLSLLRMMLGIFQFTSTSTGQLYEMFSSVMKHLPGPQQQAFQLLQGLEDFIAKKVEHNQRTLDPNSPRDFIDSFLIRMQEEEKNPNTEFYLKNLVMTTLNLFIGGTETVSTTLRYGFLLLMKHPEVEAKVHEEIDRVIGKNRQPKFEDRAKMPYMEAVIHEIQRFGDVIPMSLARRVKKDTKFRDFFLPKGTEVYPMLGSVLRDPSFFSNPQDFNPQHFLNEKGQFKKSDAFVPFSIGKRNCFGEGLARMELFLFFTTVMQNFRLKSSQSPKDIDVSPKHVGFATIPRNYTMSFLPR
Method: as §2
(§3) The incubation plate was placed into a water bath and pre-warmed at 37° C. for 5 minutes before the reactions were started by the addition of 20 μL of 10 mM NADPH solution and incubated at 37° C. for the time listed above. The reaction was stopped by addition of 1.5 volumes (300 μL) of cold ACN containing 3% formic acid and 200 nM tolbutamide, 200 nM aprozolam and 200 nM labalol. The plate was centrifuged at 3,220 g for 50 minutes and then 200 μL of the supernatant was transferred to the analysis plate for LC/MS/MS analysis. The respective metabolite formation from each probe substrate was compared with that observed for the solvent control incubations.

CYP2B6 = CYP2B6 (Homo sapiens (Human), UniProt P20813); test: biochemical; format: in vitro ADME
Sequence of CYP2B6 (P20813 whole entry): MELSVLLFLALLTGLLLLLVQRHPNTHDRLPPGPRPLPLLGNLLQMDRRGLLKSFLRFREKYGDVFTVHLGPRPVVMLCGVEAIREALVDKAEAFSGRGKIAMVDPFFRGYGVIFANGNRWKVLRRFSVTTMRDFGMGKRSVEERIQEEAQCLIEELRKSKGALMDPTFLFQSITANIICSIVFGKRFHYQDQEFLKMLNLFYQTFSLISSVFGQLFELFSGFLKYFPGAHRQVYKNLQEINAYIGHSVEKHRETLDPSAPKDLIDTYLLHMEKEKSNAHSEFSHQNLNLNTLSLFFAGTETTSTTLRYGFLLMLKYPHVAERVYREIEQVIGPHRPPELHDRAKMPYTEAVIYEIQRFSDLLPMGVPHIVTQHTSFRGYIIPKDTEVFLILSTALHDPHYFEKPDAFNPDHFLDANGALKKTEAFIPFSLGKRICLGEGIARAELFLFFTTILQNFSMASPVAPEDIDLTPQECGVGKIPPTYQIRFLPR
Method: as §2, §3

CYP2C19 = CYP2C19 (Homo sapiens (Human), UniProt P33261); test: biochemical; format: in vitro ADME
Sequence of CYP2C19 (P33261 whole entry): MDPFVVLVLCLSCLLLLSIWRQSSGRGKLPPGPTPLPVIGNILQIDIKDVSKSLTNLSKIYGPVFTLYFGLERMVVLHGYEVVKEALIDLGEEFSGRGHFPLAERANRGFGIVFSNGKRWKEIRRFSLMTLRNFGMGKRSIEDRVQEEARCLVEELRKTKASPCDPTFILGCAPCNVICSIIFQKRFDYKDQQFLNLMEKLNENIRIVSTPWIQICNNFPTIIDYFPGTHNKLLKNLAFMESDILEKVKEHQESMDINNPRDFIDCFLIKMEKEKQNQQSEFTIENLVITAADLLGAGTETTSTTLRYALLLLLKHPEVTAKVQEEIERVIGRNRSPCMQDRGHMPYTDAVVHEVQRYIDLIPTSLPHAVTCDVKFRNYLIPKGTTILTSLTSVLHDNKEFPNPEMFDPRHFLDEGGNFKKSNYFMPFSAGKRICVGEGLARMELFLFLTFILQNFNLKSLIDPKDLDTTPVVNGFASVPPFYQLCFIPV
Method: as §2, §3

CYP2C8 = CYP2C8 (Homo sapiens (Human), UniProt P10632); test: biochemical; format: in vitro ADME
Sequence of CYP2C8 (P10632 whole entry): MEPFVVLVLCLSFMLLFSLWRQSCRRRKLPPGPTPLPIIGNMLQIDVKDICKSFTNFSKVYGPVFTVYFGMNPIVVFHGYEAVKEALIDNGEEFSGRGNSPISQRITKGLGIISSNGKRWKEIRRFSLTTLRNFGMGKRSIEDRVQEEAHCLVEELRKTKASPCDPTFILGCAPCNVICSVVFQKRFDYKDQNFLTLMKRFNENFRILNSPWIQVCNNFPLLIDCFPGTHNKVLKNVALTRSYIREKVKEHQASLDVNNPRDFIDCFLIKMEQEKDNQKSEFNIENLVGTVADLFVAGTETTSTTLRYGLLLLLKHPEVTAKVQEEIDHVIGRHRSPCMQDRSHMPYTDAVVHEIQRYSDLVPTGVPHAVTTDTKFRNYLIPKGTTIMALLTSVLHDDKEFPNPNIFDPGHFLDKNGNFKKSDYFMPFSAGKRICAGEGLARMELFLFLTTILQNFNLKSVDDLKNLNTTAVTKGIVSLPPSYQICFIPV
Method: as §2, §3

CYP2C9 = CYP2C9 (Homo sapiens (Human), UniProt P11712); test: biochemical; format: in vitro ADME
Sequence of CYP2C9 (P11712 whole entry): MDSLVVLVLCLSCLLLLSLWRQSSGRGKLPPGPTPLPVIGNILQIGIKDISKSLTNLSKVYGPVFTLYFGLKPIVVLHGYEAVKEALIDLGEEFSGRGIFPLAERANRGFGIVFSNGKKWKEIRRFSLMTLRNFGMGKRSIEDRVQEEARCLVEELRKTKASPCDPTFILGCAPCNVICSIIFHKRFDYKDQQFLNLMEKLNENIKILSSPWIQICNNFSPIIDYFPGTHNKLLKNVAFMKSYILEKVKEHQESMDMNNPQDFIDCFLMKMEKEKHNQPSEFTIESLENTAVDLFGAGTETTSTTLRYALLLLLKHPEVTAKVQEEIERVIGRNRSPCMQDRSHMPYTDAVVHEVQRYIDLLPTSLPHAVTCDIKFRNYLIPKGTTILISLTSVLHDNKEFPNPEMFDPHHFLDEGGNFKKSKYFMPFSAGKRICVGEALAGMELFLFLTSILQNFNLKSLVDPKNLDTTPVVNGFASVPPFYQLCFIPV
Method: as §2, §3

CYP2D6 = CYP2D6 (Homo sapiens (Human), UniProt P10635); test: biochemical; format: in vitro ADME
Sequence of CYP2D6 (P10635 whole entry): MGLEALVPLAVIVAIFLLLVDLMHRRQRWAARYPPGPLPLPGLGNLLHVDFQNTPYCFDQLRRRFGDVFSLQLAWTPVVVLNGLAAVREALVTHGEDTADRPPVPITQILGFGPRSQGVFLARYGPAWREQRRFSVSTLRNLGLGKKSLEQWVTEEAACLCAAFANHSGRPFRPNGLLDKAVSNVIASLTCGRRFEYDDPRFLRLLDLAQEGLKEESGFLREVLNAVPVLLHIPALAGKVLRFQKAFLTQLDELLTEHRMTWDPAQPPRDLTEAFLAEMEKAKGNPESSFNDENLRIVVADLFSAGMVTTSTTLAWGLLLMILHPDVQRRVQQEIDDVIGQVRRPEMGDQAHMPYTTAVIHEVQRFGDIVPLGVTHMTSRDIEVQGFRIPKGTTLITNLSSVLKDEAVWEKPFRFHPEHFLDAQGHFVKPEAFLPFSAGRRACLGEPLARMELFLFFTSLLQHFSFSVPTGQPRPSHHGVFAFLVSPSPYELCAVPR
Method: as §2, §3

CYP2E1 = CYP2E1 (Homo sapiens (Human), UniProt P05181); test: biochemical; format: in vitro ADME
Sequence of CYP2E1 (P05181 whole entry): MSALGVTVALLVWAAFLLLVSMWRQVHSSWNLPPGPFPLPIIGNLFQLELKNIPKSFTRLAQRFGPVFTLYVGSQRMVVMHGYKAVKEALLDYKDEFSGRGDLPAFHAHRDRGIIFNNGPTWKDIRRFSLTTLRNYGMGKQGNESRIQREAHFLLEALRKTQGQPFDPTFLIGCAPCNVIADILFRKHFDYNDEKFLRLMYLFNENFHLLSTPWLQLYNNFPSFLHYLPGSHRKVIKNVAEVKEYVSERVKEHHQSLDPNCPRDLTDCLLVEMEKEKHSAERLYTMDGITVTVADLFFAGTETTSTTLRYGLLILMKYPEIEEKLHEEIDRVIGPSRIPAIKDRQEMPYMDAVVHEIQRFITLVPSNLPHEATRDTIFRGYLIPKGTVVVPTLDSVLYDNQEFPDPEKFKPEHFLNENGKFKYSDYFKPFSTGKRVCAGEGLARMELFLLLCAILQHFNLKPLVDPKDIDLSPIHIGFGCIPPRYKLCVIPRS
Method: as §2, §3

CYP3A4 = CYP3A4 (Homo sapiens (Human), UniProt P08684); test: biochemical; format: in vitro ADME
Sequence of CYP3A4 (P08684 whole entry): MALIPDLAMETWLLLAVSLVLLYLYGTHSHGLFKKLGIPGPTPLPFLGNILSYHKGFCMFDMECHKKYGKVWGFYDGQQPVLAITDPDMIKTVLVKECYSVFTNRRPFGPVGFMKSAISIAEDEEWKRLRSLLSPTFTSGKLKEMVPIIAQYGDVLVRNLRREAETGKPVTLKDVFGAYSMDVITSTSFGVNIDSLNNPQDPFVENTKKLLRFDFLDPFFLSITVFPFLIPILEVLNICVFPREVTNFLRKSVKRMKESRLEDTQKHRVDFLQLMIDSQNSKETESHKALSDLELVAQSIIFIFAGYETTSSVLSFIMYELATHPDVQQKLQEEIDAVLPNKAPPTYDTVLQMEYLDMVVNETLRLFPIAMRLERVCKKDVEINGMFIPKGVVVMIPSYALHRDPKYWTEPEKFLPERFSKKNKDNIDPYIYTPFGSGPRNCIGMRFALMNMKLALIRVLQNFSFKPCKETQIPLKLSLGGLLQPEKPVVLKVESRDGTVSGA
Method: as §2, §3

recombinant human DHODH = recombinant human DHODH (Homo sapiens (Human), UniProt Q02127); test: DHODH enzyme assay (Assay A), DCIP absorbance; format: biochemical; settings: bins ≥10 nM-<100 nM and <10 nM; read-out: IC50 DHODH inhibition activity
Sequence of recombinant human DHODH (Q02127 whole entry): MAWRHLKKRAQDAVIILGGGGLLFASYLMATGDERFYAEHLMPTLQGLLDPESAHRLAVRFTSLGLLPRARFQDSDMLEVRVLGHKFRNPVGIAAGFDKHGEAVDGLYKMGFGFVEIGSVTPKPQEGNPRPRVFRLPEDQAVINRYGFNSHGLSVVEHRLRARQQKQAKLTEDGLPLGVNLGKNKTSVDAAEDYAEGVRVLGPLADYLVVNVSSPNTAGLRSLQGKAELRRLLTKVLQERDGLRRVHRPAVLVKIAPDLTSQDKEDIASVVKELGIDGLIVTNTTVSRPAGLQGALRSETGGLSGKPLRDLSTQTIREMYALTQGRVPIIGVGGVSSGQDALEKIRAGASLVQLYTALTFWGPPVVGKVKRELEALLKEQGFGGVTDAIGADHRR

MOLM-13 cells = test: MOLM-13 cell viability (Assay B), Cell Titer-Glo; format: cell-based; settings: Homo sapiens, read-out: IC50 MOLM13 inhibition activity
Procedure, shortened: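 Cells at 1,000 per well in RPMI/10% FBS were exposed to compound (10E-5 to 6E-12 M), with or without 100 μM uridine, for 72 h. Viability was read by CellTiter-Glo luminescence. Duplicates were run, and potency was taken from two independent experiments.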

[3] = MOLM-13, 72 hours, bins ≥10 nM-<100 nM and <10 nM

| Structure (SMILES) | HLM % remaining (in vitro [1]) [%] | half-life at 1 μM (in vitro [1]; pooled liver microsomes) [h] | hHEPs % remaining (in vitro [2]) | half-life at 1 μM (in vitro [2]) [h] | IC50 (CYP1A2) [nM] | IC50 (CYP2A6) [nM] | IC50 (CYP2B6) [nM] | IC50 (CYP2C19) [nM] | IC50 (CYP2C8) [nM] | IC50 (CYP2C9) [nM] | IC50 (CYP2D6) [nM] | IC50 (CYP2E1) [nM] | IC50 (CYP3A4; IC50 CYP3A4-M, substrate Midozolam) [nM] | IC50 (CYP3A4; IC50 CYP3A4-T, substrate Testosterone) [nM] | IC50 (recombinant human DHODH) [nM] | IC50 (MOLM-13 cells; [3]) [nM] | IC50 (MOLM-13 cells; MOLM-13, 72 h) [nM] | half-life at 1 μM (in vitro [1]; microsomes) [h] |
| --- | --- | --- | --- | --- | --- | --- | --- | --- | --- | --- | --- | --- | --- | --- | --- | --- | --- | --- |
| COc1ccc(F)c(-n2ncc3c2CCC[C@H]3NC(=O)c2ncn3c2CCCC3)c1Cl [Compound C, reference compound] | 69 | 1.7 | 100% | > 10 | > 30000 | > 30000 | > 30000 | 18000 | > 30000 | 9200 | > 30000 | > 30000 | 16000 | > 30000 |  |  |  |  |
| Cc1cccc(F)c1-n1ncc2c1COC[C@H]2NC(=O)c1ncn2c1CCCC2 [Ex-58, (S)—N-(1-(2-fluoro-6-methylphenyl)-1,4,5,7-tetrahydropyrano[3,4-c]pyrazol-4-yl)-5,6,7,8-tetrahydroimidazo[1,5-a]pyridine-1-carboxamide] | 87 | 4.58 | 100% | > 10 |  |  |  |  |  |  |  |  |  |  | 10 to 100 | 10 to 100 |  |  |
| O=C(N[C@@H]1COCc2c1cnn2-c1c(F)cccc1F)c1ncn2c1CCCC2 [Ex-59, (S)—N-(1-(2,6-difluorophenyl)-1,4,5,7-tetrahydropyrano[3,4-c]pyrazol-4-yl)-5,6,7,8-tetrahydroimidazo[1,5-a]pyridine-1-carboxamide] | 91 | > 6.08 | 100% | > 10 |  |  |  |  |  |  |  |  |  |  | 10 to 100 | 10 to 100 |  |  |
| COc1cccc(C)c1-n1ncc2c1COC[C@H]2NC(=O)c1ncn2c1CCCC2 [Ex-61, (S)—N-(1-(2-methoxy-6-methylphenyl)-1,4,5,7-tetrahydropyrano[3,4-c]pyrazol-4-yl)-5,6,7,8-tetrahydroimidazo[1,5-a]pyridine-1-carboxamide] | 94 | > 6.08 | 100% | > 10 |  |  |  |  |  |  |  |  |  |  | 10 to 100 | 10 to 100 |  |  |
| CC(C)OC(=O)c1cccc(-n2ncc3c2COC[C@H]3NC(=O)c2ncn3c2CCCC3)c1Cl [Ex-69, Isopropyl (S)-2-chloro-3-(4-(5,6,7,8-tetrahydroimidazo[1,5-a]pyridine-1-carboxamido)-4,7-dihydropyrano[3,4-c]pyrazol-1(5H)-yl)benzoate] | 0.14 |  | BLOD@ | 0.0767 |  |  |  |  |  |  |  |  |  |  | < 10 |  | < 10 | 0.122 |
